Measured values from PubChem BioAssay (NCI).
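Compound exposure: 48 hours, 5 concentrations, 96-well plates. The concentration for full growth arrest is given as TGI.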

Experiments:
Assay in all cases: NCI anticancer screen, dose series, 48 h
[1] = tested on: SK-MEL-2 melanoma
[2] = tested on: OVCAR-5 ovarian
[3] = tested on: MDA-MB-435
[4] = tested on: OVCAR-8 ovarian
[5] = tested on: SK-OV-3 ovarian
[6] = tested on: K-562 leukemia
[7] = tested on: RPMI-8226 leukemia
[8] = tested on: MDA-N
[9] = tested on: TK-10 renal
[10] = tested on: RXF 393 renal
[11] = tested on: MDA-MB-231 breast
[12] = tested on: DU-145 prostate
[13] = tested on: UACC-257 melanoma
[14] = tested on: NCI/ADR-RES ovarian
[15] = tested on: M14 melanoma
[16] = tested on: SF-539 CNS
[17] = tested on: NCI-H23 lung
[18] = tested on: ACHN renal
[19] = tested on: MCF7 breast
[20] = tested on: U251 CNS
[21] = tested on: 786-0 renal
[22] = tested on: SK-MEL-5 melanoma
[23] = tested on: HT29 colon
[24] = tested on: MALME-3M melanoma
[25] = tested on: EKVX NSCLC
[26] = tested on: HOP-92 NSCLC
[27] = tested on: LOX IMVI melanoma
[28] = tested on: BT-549 breast
[29] = tested on: IGROV1 ovarian
[30] = tested on: HCT-116 colon
[31] = tested on: HL-60(TB) leukemia
[32] = tested on: NCI-H522 lung
[33] = tested on: SF-295 CNS
[34] = tested on: HCT-15 colon
[35] = tested on: SF-268 CNS
[36] = tested on: COLO 205 colon
[37] = tested on: NCI-H226 lung
[38] = tested on: SW-620 colon
[39] = tested on: CAKI-1 renal
[40] = tested on: SR leukemia
[41] = tested on: HS 578T breast
[42] = tested on: HOP-62 NSCLC
[43] = tested on: UO-31 renal
[44] = tested on: SNB-19 CNS
[45] = tested on: SNB-75 CNS
[46] = tested on: HCC-2998 colon
[47] = tested on: OVCAR-4 ovarian
[48] = tested on: SN12C renal
[49] = tested on: PC-3 prostate
[50] = tested on: A549 NSCLC
[51] = tested on: UACC-62 melanoma
[52] = tested on: NCI-H460 lung
[53] = tested on: SK-MEL-28 melanoma
[54] = tested on: OVCAR-3 ovarian
[55] = tested on: A498 renal
[56] = tested on: MOLT-4 leukemia
[57] = tested on: CCRF-CEM leukemia
[58] = tested on: KM12 colon
[59] = tested on: T-47D breast

For `CC1=C(/C=C/C(=O)O)C(C)(C)CCC1`, the TGI [1] was greater than 100 µM, the TGI [2] was greater than 100 µM and the TGI [3] was greater than 100 µM. The TGI [4] was greater than 100 µM, the TGI [5] was greater than 100 µM and the TGI [6] was greater than 100 µM. It also gave a TGI [7] greater than 100 µM, a TGI [8] greater than 100 µM and a TGI [9] greater than 100 µM. The TGI [10] was greater than 100 µM, the TGI [11] was greater than 100 µM and the TGI [12] was greater than 100 µM. The TGI [13] was greater than 100 µM, the TGI [14] was greater than 100 µM and the TGI [15] was greater than 100 µM. For the same compound, the TGI [16] was greater than 100 µM, the TGI [17] was greater than 100 µM and the TGI [18] was greater than 100 µM. The TGI [19] was greater than 100 µM, the TGI [20] was greater than 100 µM and the TGI [21] was greater than 100 µM. For the same compound, the TGI [22] was greater than 100 µM, the TGI [23] was greater than 100 µM and the TGI [24] was greater than 100 µM. The TGI [25] was greater than 100 µM, the TGI [26] was greater than 100 µM and the TGI [27] was greater than 100 µM. The TGI [28] was greater than 100 µM, the TGI [29] was greater than 100 µM and the TGI [30] was greater than 100 µM. The TGI [31] was greater than 100 µM, the TGI [32] was greater than 100 µM and the TGI [33] was greater than 100 µM. For the same compound, the TGI [34] was greater than 100 µM, the TGI [35] was greater than 100 µM and the TGI [36] was greater than 100 µM. It also gave a TGI [37] greater than 100 µM, a TGI [38] greater than 100 µM and a TGI [39] greater than 100 µM. It also gave a TGI [40] greater than 100 µM, a TGI [41] greater than 100 µM and a TGI [42] greater than 100 µM. The TGI [43] was greater than 100 µM, the TGI [44] was greater than 100 µM and the TGI [45] was greater than 100 µM. It also gave a TGI [46] greater than 100 µM, a TGI [47] greater than 100 µM and a TGI [48] greater than 100 µM. The TGI [49] was greater than 100 µM, the TGI [50] was greater than 100 µM and the TGI [51] was greater than 100 µM. For the same compound, the TGI [52] was greater than 100 µM, the TGI [53] was greater than 100 µM and the TGI [54] was greater than 100 µM. It also gave a TGI [55] greater than 100 µM.
Work on `C/C=C1/CN2CCc3c([nH]c4ccccc34)[C@@H]2C[C@@H]1Cc1[nH]ccc2c1[nH]c1cc(=O)ccc12` yielded a TGI [2] of 8.64 µM, a TGI [3] of 3.45 µM and a TGI [4] of 3.17 µM. It also gave a TGI [5] of 4.4 µM, a TGI [56] greater than 100 µM and a TGI [6] greater than 100 µM. It also gave a TGI [8] of 4.51 µM, a TGI [9] of 4.33 µM and a TGI [12] of 4.26 µM. The TGI [14] was 3.49 µM, the TGI [15] was 4.78 µM and the TGI [17] was 3.34 µM. It also gave a TGI [18] greater than 100 µM, a TGI [21] of 3.19 µM and a TGI [57] greater than 100 µM. The TGI [25] was 4.05 µM, the TGI [26] was 37.6 µM and the TGI [28] was 31.4 µM. It also gave a TGI [34] of 10.6 µM, a TGI [35] of 3.33 µM and a TGI [36] greater than 100 µM. It also gave a TGI [37] greater than 100 µM, a TGI [38] greater than 100 µM and a TGI [39] of 3.8 µM. The TGI [40] was greater than 100 µM, the TGI [41] was 4.15 µM and the TGI [43] was 2.94 µM. For the same compound, the TGI [44] was greater than 100 µM, the TGI [45] was 3.36 µM and the TGI [47] was 3.73 µM. For the same compound, the TGI [48] was 3.17 µM, the TGI [49] was 6.88 µM and the TGI [51] was 3.62 µM. The TGI [52] was 64.4 µM, the TGI [53] was 4.5 µM and the TGI [54] was 5.15 µM. The TGI [55] was 4.94 µM.
In the case of `CC(=O)Nc1ccc2c3c(cc(O)c2c1)N(C(=O)CCCCCC(=O)N1CC(CCl)c2c1cc(O)c1cc(NC(C)=O)ccc21)CC3CCl` (configuration not stated), the TGI [2] is reported as 13.3 µM, the TGI [3] is reported as 0.187 µM and the TGI [5] is reported as greater than 100 µM. The TGI [6] was greater than 100 µM, the TGI [8] was 0.085 µM and the TGI [9] was greater than 100 µM. It also gave a TGI [11] of 0.0503 µM, a TGI [12] of 0.0392 µM and a TGI [14] greater than 100 µM. The TGI [15] was 0.125 µM, the TGI [16] was 0.205 µM and the TGI [21] was 0.0412 µM. For the same compound, the TGI [22] was 0.0198 µM, the TGI [23] was greater than 33.3 µM and the TGI [24] was 0.0654 µM. It also gave a TGI [25] of 0.803 µM, a TGI [26] of 0.0392 µM and a TGI [27] greater than 100 µM. For the same compound, the TGI [28] was 0.0736 µM, the TGI [29] was greater than 87.2 µM and the TGI [31] was 26 µM. It also gave a TGI [58] of 0.636 µM, a TGI [33] greater than 100 µM and a TGI [34] of 14.2 µM. It also gave a TGI [37] of 0.0915 µM, a TGI [38] greater than 100 µM and a TGI [39] of 0.918 µM. It also gave a TGI [42] greater than 100 µM, a TGI [44] greater than 100 µM and a TGI [59] of 0.02 µM. It also gave a TGI [49] of 1.8 µM, a TGI [51] of 0.0248 µM and a TGI [52] greater than 100 µM. It also gave a TGI [53] greater than 100 µM.
For `COC(=O)c1cc2c3c(cc(N(C)C)c2[nH]1)N(C(=O)c1cc2cc(OC)c(OC)c(OC)c2[nH]1)CC3CCl` (configuration not stated), the TGI [1] was 0.0659 µM, the TGI [2] was 0.25 µM and the TGI [3] was less than 0.0025 µM. For the same compound, the TGI [5] was 0.101 µM, the TGI [56] was 0.318 µM and the TGI [6] was 0.788 µM. It also gave a TGI [7] of 0.0324 µM, a TGI [8] of less than 0.0025 µM and a TGI [10] of less than 0.0025 µM. The TGI [11] was 0.0132 µM, the TGI [12] was less than 0.0025 µM and the TGI [14] was 0.0548 µM. The TGI [15] was 0.00848 µM, the TGI [19] was 2.42 µM and the TGI [21] was 0.00487 µM. The TGI [22] was 0.00591 µM, the TGI [23] was greater than 25 µM and the TGI [57] was 0.0538 µM. The TGI [24] was less than 0.0025 µM, the TGI [25] was 2.79 µM and the TGI [26] was 0.756 µM. For the same compound, the TGI [28] was 0.193 µM, the TGI [30] was less than 0.0025 µM and the TGI [58] was 0.0118 µM. For the same compound, the TGI [32] was 0.0113 µM, the TGI [33] was 0.226 µM and the TGI [34] was 19.2 µM. The TGI [35] was 0.127 µM, the TGI [36] was 0.0131 µM and the TGI [37] was 0.0223 µM. The TGI [39] was less than 0.0025 µM, the TGI [42] was 0.00774 µM and the TGI [44] was 0.0814 µM. The TGI [59] was 0.642 µM, the TGI [45] was 0.00422 µM and the TGI [46] was 0.0144 µM. The TGI [47] was 0.00605 µM, the TGI [48] was 0.384 µM and the TGI [49] was 25 µM. For the same compound, the TGI [51] was 0.0565 µM, the TGI [52] was 0.323 µM and the TGI [53] was 0.0143 µM. For the same compound, the TGI [54] was 0.0136 µM and the TGI [55] was 0.0292 µM.
Compound `COC(=O)C(C)(C)OCc1ccc(C2NC(=O)N(c3cccc(Cl)c3)C(=O)N2c2cccc(Cl)c2)cc1` (configuration not stated) has a TGI [1] greater than 100 µM, a TGI [2] greater than 100 µM and a TGI [3] greater than 100 µM. It also gave a TGI [4] greater than 100 µM, a TGI [5] greater than 100 µM and a TGI [56] greater than 100 µM. The TGI [6] was greater than 100 µM, the TGI [7] was greater than 100 µM and the TGI [8] was greater than 100 µM. The TGI [10] was greater than 100 µM, the TGI [11] was greater than 100 µM and the TGI [12] was greater than 100 µM. The TGI [13] was greater than 100 µM, the TGI [14] was greater than 100 µM and the TGI [15] was greater than 100 µM. It also gave a TGI [16] greater than 100 µM, a TGI [17] of 22.1 µM and a TGI [18] greater than 100 µM. For the same compound, the TGI [19] was greater than 100 µM, the TGI [20] was greater than 100 µM and the TGI [21] was greater than 100 µM. For the same compound, the TGI [22] was 52.8 µM, the TGI [23] was greater than 100 µM and the TGI [57] was greater than 100 µM. For the same compound, the TGI [25] was 78.8 µM, the TGI [26] was 69.7 µM and the TGI [28] was greater than 100 µM. It also gave a TGI [29] greater than 100 µM, a TGI [30] greater than 100 µM and a TGI [58] greater than 100 µM. The TGI [32] was 76.8 µM, the TGI [33] was greater than 100 µM and the TGI [34] was greater than 100 µM. It also gave a TGI [35] greater than 100 µM, a TGI [36] greater than 100 µM and a TGI [38] greater than 100 µM. The TGI [39] was greater than 100 µM, the TGI [40] was 96.6 µM and the TGI [41] was 44.4 µM. It also gave a TGI [42] greater than 100 µM, a TGI [43] greater than 100 µM and a TGI [44] greater than 100 µM. It also gave a TGI [45] of 6.95 µM, a TGI [46] greater than 100 µM and a TGI [47] greater than 100 µM. For the same compound, the TGI [48] was greater than 100 µM, the TGI [49] was greater than 100 µM and the TGI [50] was greater than 100 µM. For the same compound, the TGI [51] was greater than 100 µM, the TGI [52] was greater than 100 µM and the TGI [53] was greater than 100 µM. The TGI [54] was greater than 100 µM.
